# Residue numbers refer to the chain shown, from its start.
# Assays:
# Assay in all cases: fluorescence titration
# Format in all cases: binding
# DiB-RM-split = biological target: T1, DiB-RM-split (Escherichia coli, UniProt P0A901, A36C/F53A/N76F/S89Y/E90V/S107A/L141N); settings: apparent Kd, 1 μM chromophore, varied protein, excitation 490 nm
# T1 construct: gene blc; two co-expressed self-assembling fragments of DiB-RM split between residues 109 and 110; E. coli XJb(DE3), TALON then size exclusion
# T1 sequence (P0A901 20-109 A36C/F53A/N76F/S89Y/E90V/S107A): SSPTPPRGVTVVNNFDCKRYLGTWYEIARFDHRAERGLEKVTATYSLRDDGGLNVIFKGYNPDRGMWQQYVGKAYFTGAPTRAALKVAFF
# T1 sequence (P0A901 110-177 L141N): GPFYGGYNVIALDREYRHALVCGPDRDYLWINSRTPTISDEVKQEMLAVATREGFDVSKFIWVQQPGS
# Excerpt: fluorescence titration on DiB-RM-split
# [1] = biological target: T2, DiB1; DiB-RM (lipocalin Blc mutants) (Escherichia coli, UniProt P0A901, A36C/N76F/S89Y/E90V/S107A/L141N); settings: DiB-RM-A53F; apparent Kd; 1 μM chromophore, varied protein; excitation 490 nm
# T2 construct: E. coli XJb(DE3) expression from pBAD, TALON then size exclusion; monomer in solution
# T2 sequence (P0A901 20-177 A36C/N76F/S89Y/E90V/S107A/L141N): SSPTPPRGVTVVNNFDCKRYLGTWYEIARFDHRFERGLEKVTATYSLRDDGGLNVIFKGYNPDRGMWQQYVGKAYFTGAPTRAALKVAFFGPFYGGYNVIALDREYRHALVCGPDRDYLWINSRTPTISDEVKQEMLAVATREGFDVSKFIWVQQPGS
# Excerpt: (§1) fluorescence titration on DiB1; DiB-RM (lipocalin Blc mutants)
# [2] = biological target: T3, DiB1; DiB-RM (lipocalin Blc mutants) (Escherichia coli, UniProt P0A901, A36C/F53A/N76F/S89Y/E90V/S107A/L141N); settings: apparent Kd, 1 μM chromophore, varied protein, excitation 490 nm
# T3 construct: E. coli XJb(DE3) expression from pBAD, TALON then size exclusion; monomer in solution
# T3 sequence (P0A901 20-177 A36C/F53A/N76F/S89Y/E90V/S107A/L141N): T2 sequence (P0A901 20-177 A36C/N76F/S89Y/E90V/S107A/L141N) with F34A
# Excerpt: as §1
# [3] = biological target: T4, DiB1; DiB-RM (lipocalin Blc mutants) (Escherichia coli, UniProt P0A901, A36C/L141N); settings: apparent Kd, 1 μM chromophore, varied protein, excitation 490 nm
# T4 construct: E. coli XJb(DE3) expression from pBAD, TALON then size exclusion; monomer in solution
# T4 sequence (P0A901 20-177 A36C/L141N): T2 sequence (P0A901 20-177 A36C/N76F/S89Y/E90V/S107A/L141N) with F57N, Y70S, V71E, A88S
# Excerpt: as §1
# [4] = biological target: T5, DiB1; DiB-RM (lipocalin Blc mutants) (Escherichia coli, UniProt P0A901, A36C/F53A/N76F/E90V/S107A/L141N); settings: DiB-RM-Y89S; apparent Kd; 1 μM chromophore, varied protein; excitation 490 nm
# T5 construct: E. coli XJb(DE3) expression from pBAD, TALON then size exclusion; monomer in solution
# T5 sequence (P0A901 20-177 A36C/F53A/N76F/E90V/S107A/L141N): T2 sequence (P0A901 20-177 A36C/N76F/S89Y/E90V/S107A/L141N) with F34A, Y70S
# Excerpt: as §1
# [5] = biological target: T6, DiB1; DiB-RM (lipocalin Blc mutants) (Escherichia coli, UniProt P0A901, A36C/F53A/N76F/S89Y/E90V/L141N); settings: DiB-RM-A107S; apparent Kd; 1 μM chromophore, varied protein; excitation 490 nm
# T6 construct: E. coli XJb(DE3) expression from pBAD, TALON then size exclusion; monomer in solution
# T6 sequence (P0A901 20-177 A36C/F53A/N76F/S89Y/E90V/L141N): T2 sequence (P0A901 20-177 A36C/N76F/S89Y/E90V/S107A/L141N) with F34A, A88S
# Excerpt: as §1
# [6] = biological target: T7, DiB1; DiB-RM (lipocalin Blc mutants) (Escherichia coli, UniProt P0A901, A36C/F53A/S89Y/E90V/S107A/L141N); settings: DiB-RM-F76N; apparent Kd; 1 μM chromophore, varied protein; excitation 490 nm
# T7 construct: E. coli XJb(DE3) expression from pBAD, TALON then size exclusion; monomer in solution
# T7 sequence (P0A901 20-177 A36C/F53A/S89Y/E90V/S107A/L141N): T2 sequence (P0A901 20-177 A36C/N76F/S89Y/E90V/S107A/L141N) with F34A, F57N
# Excerpt: as §1
# [7] = biological target: T8, DiB1; DiB-RM (lipocalin Blc mutants) (Escherichia coli, UniProt P0A901, A36C/F53A/N76F/S89Y/S107A/L141N); settings: DiB-RM-V90E; apparent Kd; 1 μM chromophore, varied protein; excitation 490 nm
# T8 construct: E. coli XJb(DE3) expression from pBAD, TALON then size exclusion; monomer in solution
# T8 sequence (P0A901 20-177 A36C/F53A/N76F/S89Y/S107A/L141N): T2 sequence (P0A901 20-177 A36C/N76F/S89Y/E90V/S107A/L141N) with F34A, V71E
# Excerpt: as §1
structure (smiles),measurement,setting,value
CCN(CC)c1ccc2c(c1)[B-](F)(F)[N+]1=C(C)N(C)C(=O)C1=C2 [M739],Kd,DiB-RM-split,2800 ± 400 nM
same,Kd,[1],160 ± 40 nM
same,Kd,[2],170 ± 40 nM
same,Kd,[3],40 ± 30 nM
same,Kd,[4],660 ± 80 nM
same,Kd,[5],290 ± 40 nM
same,Kd,[6],70 ± 10 nM
same,Kd,[7],380 ± 50 nM

# Source: PMC8601599, “Computational redesign of a fluorogen activating protein with Rosetta” (PLoS Computational Biology, 2021)
